Experimental data reported in patent publication US20240409585A1, “MACROCYCLIC IMMUNOMODULATORS” (priority 2021, published 2024).
Numbered stars: 1 amine (or outer) side, 2 acyl side, 3 side chain; on linkers, the order of the positions; unused ones are H or OH. Bridge positions count the residues as written; N and C are the ends. Square brackets hold non-standard residues; d marks the D form. Peptide text beside a SMILES is read from it. * marks the point of attachment. ξ: configuration not given here. Phe(4-COOH) = N[C@@H](Cc1ccc(C(=O)O)cc1)C(=O)O; X28 = O=C([C@H](Cc1ccc2ccncc2c1)N[*:1])[*:2]; Bip = N[C@@H](Cc1ccc(-c2ccccc2)cc1)C(=O)O; Lys(Me3) = C[N+](C)(C)CCCC[C@H](N)C(=O)O; Phe(3-OMe) = COc1cccc(C[C@H](N)C(=O)O)c1; Phe(3-Me) = Cc1cccc(C[C@H](N)C(=O)O)c1; Phe(4-F) = N[C@@H](Cc1ccc(F)cc1)C(=O)O; Val(3-OH) = CC(C)(O)[C@H](N)C(=O)O; 3Pal = N[C@@H](Cc1cccnc1)C(=O)O; 4Pal = N[C@@H](Cc1ccncc1)C(=O)O; Cha = N[C@@H](CC1CCCCC1)C(=O)O; Ile(3ξ) = CCC(C)[C@H](N)C(=O)O; Thr(3ξ) = CC(O)[C@H](N)C(=O)O; Ala(CN) = N#CC[C@H](N)C(=O)O; Carboxymethyl = O=C(O)C*; NMeA = CN[C@@H](C)C(=O)O; Nle = CCCC[C@H](N)C(=O)O; Orn = NCCC[C@H](N)C(=O)O; Dab = NCC[C@H](N)C(=O)O; Dap = NC[C@H](N)C(=O)O; ξC = NC(CS)C(=O)O

These compounds were tested against T1, PE-labeled human PD-L1-Ig binding to Jurkat cell line over-expressing human PD-1 (Jurkat-PD-1) (Homo sapiens, UniProt Q15116) (assay: Jurkat-PD-1 Cell Binding High-Content Screening Assay (CBA): Method 1). Conditions: Jurkat-hPD-1 cells, PE-labeled PD-L1-Ig 20 nM final; read-out: Jurkat HPDL1 PD1 IC50 (uM) (Method 1).
T1 construct: expressed in transfected cells; host or cells: Jurkat
T1 sequence (Q15116 25-288): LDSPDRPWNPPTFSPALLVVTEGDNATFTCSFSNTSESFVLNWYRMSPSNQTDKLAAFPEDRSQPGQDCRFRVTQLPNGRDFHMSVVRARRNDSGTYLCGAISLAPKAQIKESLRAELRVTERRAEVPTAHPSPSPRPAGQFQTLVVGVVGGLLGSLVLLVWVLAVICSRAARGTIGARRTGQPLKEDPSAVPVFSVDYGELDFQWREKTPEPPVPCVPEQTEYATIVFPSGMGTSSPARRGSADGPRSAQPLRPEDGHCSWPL

Row | SMILES | IC50 [µM]
1 | Cc1cccc(C[C@@H]2NC(=O)[C@H](CC(=O)O)NC(=O)[C@H](Cc3ccc(C(=O)O)cc3)NC(=O)[C@H](Cc3ccc(F)cc3)NC(=O)CSC[C@@H](C(=O)N[C@@H](CCN)C(N)=O)NC(=O)[C@H](CCC(=O)O)NC(=O)[C@H](C(C)(C)O)NC(=O)[C@H](CC3CCCCC3)NC(=O)[C@H](CCN)NC(=O)[C@@H](CC(C)C)NC(=O)[C@H](C)N(C)C(=O)[C@H](Cc3ccc(C(=O)O)cc3)NC(=O)[C@H](Cc3ccc(-c4ccccc4)cc3)NC(=O)[C@H](Cc3ccc(C(=O)O)cc3)NC2=O)c1 [Compound 2207] ({CH2CO}-[Phe(4-F)][Phe(4-COOH)]D[Phe(3-Me)][Phe(4-COOH)][Bip][Phe(4-COOH)][NMeA][dL][Dab][Cha][Val(3-OH)]EC[Dab]-NH2; thioether N-14) | 0.01
2 | Cc1cccc(C[C@@H]2NC(=O)[C@H](CC(=O)O)NC(=O)[C@H](Cc3ccc(C(=O)O)cc3)NC(=O)[C@H](Cc3ccc(F)cc3)NC(=O)CSC[C@@H](C(=O)N[C@@H](CCN)C(N)=O)NC(=O)[C@H](CCC(=O)O)NC(=O)[C@H](C(C)C)NC(=O)[C@H](CC3CCCCC3)NC(=O)[C@H](CCN)NC(=O)[C@@H](CC(C)C)NC(=O)[C@H](C)N(C)C(=O)[C@H](Cc3ccc(C(=O)O)cc3)NC(=O)[C@H](Cc3ccc(-c4ccccc4)cc3)NC(=O)[C@H](Cc3ccc(C(=O)O)cc3)NC2=O)c1 [Compound 2208] ({CH2CO}-[Phe(4-F)][Phe(4-COOH)]D[Phe(3-Me)][Phe(4-COOH)][Bip][Phe(4-COOH)][NMeA][dL][Dab][Cha]VEC[Dab]-NH2; thioether N-14) | 0.01
3 | Cc1cccc(C[C@@H]2NC(=O)[C@H](CC(=O)O)NC(=O)[C@H](Cc3ccc(C(=O)O)cc3)NC(=O)[C@H](Cc3ccc(F)cc3)NC(=O)CSC[C@@H](C(=O)N[C@@H](CCN)C(N)=O)NC(=O)[C@H](CCC(=O)O)NC(=O)[C@H](C(C)O)NC(=O)[C@H](CC3CCCCC3)NC(=O)[C@H](CCN)NC(=O)[C@@H](CC(C)C)NC(=O)[C@H](C)N(C)C(=O)[C@H](Cc3ccc(C(=O)O)cc3)NC(=O)[C@H](Cc3ccc(-c4ccccc4)cc3)NC(=O)[C@H](Cc3ccc(C(=O)O)cc3)NC2=O)c1 (stereo partly drawn) [Compound 2209] ({CH2CO}-[Phe(4-F)][Phe(4-COOH)]D[Phe(3-Me)][Phe(4-COOH)][Bip][Phe(4-COOH)][NMeA][dL][Dab][Cha][Thr(3ξ)]EC[Dab]-NH2; thioether N-14) | 0.01
4 | CCC(C)[C@@H]1NC(=O)[C@H](Cc2ccc(-c3ccccc3)cc2)NC(=O)[C@H](C(C)C)NC(=O)[C@H](Cc2c[nH]c3ccccc23)NC(=O)[C@H](CC(=O)O)NC(=O)[C@H](Cc2ccc(O)cc2)NC(=O)[C@H](Cc2ccncc2)NC(=O)CSC[C@@H](C(=O)N[C@@H](CN)C(=O)O)NC(=O)[C@H](C(C)O)NC(=O)[C@H](C(C)C)NC(=O)[C@H](CC2CCCCC2)NC(=O)[C@H](CC(N)=O)NC(=O)[C@@H](CC(C)C)NC(=O)[C@H](C)N(C)C1=O (stereo partly drawn) [Compound 2210] ({CH2CO}-[4Pal]YDWV[Bip][Ile(3ξ)][NMeA][dL]N[Cha]V[Thr(3ξ)]C[Dap]-OH; thioether N-14) | 0.02
5 | COc1cccc(C[C@@H]2NC(=O)[C@H](Cc3cccnc3)NC(=O)CSCC(C(=O)N[C@@H](CN)C(=O)O)NC(=O)[C@H](CO)NC(=O)[C@H](C(C)C)NC(=O)[C@H](CC(C)C)NC(=O)[C@H](CC(N)=O)NC(=O)[C@@H](CC(C)C)NC(=O)[C@H](C)N(C)C(=O)[C@H](C(C)C)NC(=O)[C@H](Cc3ccc(-c4ccccc4)cc3)NC(=O)[C@H](C(C)C)NC(=O)[C@H](Cc3c[nH]c4ccccc34)NC(=O)[C@H](CC(=O)O)NC2=O)c1 (stereo partly drawn) [Compound 2211] ({CH2CO}-[3Pal][Phe(3-OMe)]DWV[Bip]V[NMeA][dL]NLVS[ξC][Dap]-OH; thioether N-14) | 0.08
6 | CCC(C)[C@@H]1NC(=O)[C@H](Cc2ccc(-c3ccccc3)cc2)NC(=O)[C@H](C(C)C)NC(=O)[C@H](Cc2c[nH]c3ccccc23)NC(=O)[C@H](CC(=O)O)NC(=O)[C@H](Cc2ccc(O)cc2)NC(=O)[C@H](Cc2ccncc2)NC(=O)CSCC(C(=O)N[C@@H](CCN)C(=O)O)NC(=O)[C@H](C(C)O)NC(=O)[C@H](C(C)C)NC(=O)[C@H](CC2CCCCC2)NC(=O)[C@H](CC(N)=O)NC(=O)[C@@H](CC(C)C)NC(=O)[C@H](C)N(C)C1=O (stereo partly drawn) [Compound 2213] ({CH2CO}-[4Pal]YDWV[Bip][Ile(3ξ)][NMeA][dL]N[Cha]V[Thr(3ξ)][ξC][Dab]-OH; thioether N-14) | 0.02
7 | CCC(C)[C@@H]1NC(=O)[C@H](Cc2ccc(-c3ccccc3)cc2)NC(=O)[C@H](C(C)C)NC(=O)[C@H](Cc2c[nH]c3ccccc23)NC(=O)[C@H](CC(=O)O)NC(=O)[C@H](Cc2ccc(O)cc2)NC(=O)[C@H](Cc2ccncc2)NC(=O)CSCC(C(=O)N[C@@H](CCCN)C(=O)O)NC(=O)[C@H](C(C)O)NC(=O)[C@H](C(C)C)NC(=O)[C@H](CC2CCCCC2)NC(=O)[C@H](CC(N)=O)NC(=O)[C@@H](CC(C)C)NC(=O)[C@H](C)N(C)C1=O (stereo partly drawn) [Compound 2214] ({CH2CO}-[4Pal]YDWV[Bip][Ile(3ξ)][NMeA][dL]N[Cha]V[Thr(3ξ)][ξC][Orn]-OH; thioether N-14) | 0.02
8 | CCC(C)[C@@H]1NC(=O)[C@H](Cc2ccc(-c3ccccc3)cc2)NC(=O)[C@H](C(C)C)NC(=O)[C@H](Cc2c[nH]c3ccccc23)NC(=O)[C@H](CC(=O)O)NC(=O)[C@H](Cc2ccc(O)cc2)NC(=O)[C@H](Cc2ccncc2)NC(=O)CSCC(C(=O)N[C@@H](CCCCN)C(=O)O)NC(=O)[C@H](C(C)O)NC(=O)[C@H](C(C)C)NC(=O)[C@H](CC2CCCCC2)NC(=O)[C@H](CC(N)=O)NC(=O)[C@@H](CC(C)C)NC(=O)[C@H](C)N(C)C1=O (stereo partly drawn) [Compound 2215] ({CH2CO}-[4Pal]YDWV[Bip][Ile(3ξ)][NMeA][dL]N[Cha]V[Thr(3ξ)][ξC]K-OH; thioether N-14) | 0.03
9 | CCC(C)[C@@H]1NC(=O)[C@H](Cc2ccc(-c3ccccc3)cc2)NC(=O)[C@H](C(C)C)NC(=O)[C@H](Cc2c[nH]c3ccccc23)NC(=O)[C@H](CC(=O)O)NC(=O)[C@H](Cc2ccc(O)cc2)NC(=O)[C@H](CCCC[N+](C)(C)C)NC(=O)CSCC(C(=O)NCC(=O)O)NC(=O)[C@H](C(C)O)NC(=O)[C@H](C(C)C)NC(=O)[C@H](CC2CCCCC2)NC(=O)[C@H](CCN)NC(=O)[C@@H](CC(C)C)NC(=O)[C@H](C)N(C)C1=O (stereo partly drawn) [Compound 2217] ({CH2CO}-[Lys(Me3)]YDWV[Bip][Ile(3ξ)][NMeA][dL][Dab][Cha]V[Thr(3ξ)][ξC]G-OH; thioether N-14) | 0.01
10 | CCC(C)[C@@H]1NC(=O)[C@H](Cc2ccc(-c3ccccc3)cc2)NC(=O)[C@H](C(C)C)NC(=O)[C@H](Cc2c[nH]c3ccccc23)NC(=O)[C@H](CC(=O)O)NC(=O)[C@H](Cc2ccc(O)cc2)NC(=O)[C@H](CC#N)NC(=O)CSCC(C(=O)NCC(=O)O)NC(=O)[C@H](C(C)O)NC(=O)[C@H](C(C)C)NC(=O)[C@H](CC2CCCCC2)NC(=O)[C@H](CCN)NC(=O)[C@@H](CC(C)C)NC(=O)[C@H](C)N(C)C1=O (stereo partly drawn) [Compound 2218] ({CH2CO}-[Ala(CN)]YDWV[Bip][Ile(3ξ)][NMeA][dL][Dab][Cha]V[Thr(3ξ)][ξC]G-OH; thioether N-14) | 0.01

Next, values leading:

Row | IC50 [µM] | SMILES
11 | 0.02 | CCC(C)[C@@H]1NC(=O)[C@H](Cc2ccc(-c3ccccc3)cc2)NC(=O)[C@H](C(C)C)NC(=O)[C@H](Cc2c[nH]c3ccccc23)NC(=O)[C@H](CC(=O)O)NC(=O)[C@H](Cc2ccc(O)cc2)NC(=O)[C@H](Cc2ccc3ccncc3c2)NC(=O)CSCC(C(=O)NCC(=O)O)NC(=O)[C@H](C(C)O)NC(=O)[C@H](C(C)C)NC(=O)[C@H](CC2CCCCC2)NC(=O)[C@H](CCN)NC(=O)[C@@H](CC(C)C)NC(=O)[C@H](C)N(C)C1=O (stereo partly drawn) [Compound 2219] ({CH2CO}-[X28]YDWV[Bip][Ile(3ξ)][NMeA][dL][Dab][Cha]V[Thr(3ξ)][ξC]G-OH; thioether N-14)
12 | 0.04 | CCC(C)[C@@H]1NC(=O)[C@H](Cc2ccc(-c3ccccc3)cc2)NC(=O)[C@H](CC(C)C)NC(=O)[C@H](Cc2c[nH]c3ccccc23)NC(=O)[C@H](CC(=O)O)NC(=O)[C@H](Cc2ccc(OCC(=O)O)cc2)NC(=O)[C@H](C(C)O)NC(=O)CSC[C@@H](C(=O)N[C@@H](CC(N)=O)C(=O)O)NC(=O)[C@H](CO)NC(=O)[C@H](C(C)C)NC(=O)[C@H](CC(C)C)NC(=O)[C@H](CCN)NC(=O)[C@@H](CC(C)C)NC(=O)[C@H](C)N(C)C1=O (stereo partly drawn) [Compound 2220] ({CH2CO}-[Thr(3ξ)]Y(Carboxymethyl)DWL[Bip][Ile(3ξ)][NMeA][dL][Dab]LVSCN-OH; thioether N-14)
13 | 0.06 | CCCC[C@@H]1NC(=O)[C@H](Cc2c[nH]c3ccccc23)NC(=O)[C@H](CC(=O)O)NC(=O)[C@H](Cc2ccc(OCC(=O)O)cc2)NC(=O)[C@H](C(C)O)NC(=O)CSC[C@@H](C(=O)N[C@@H](CC(N)=O)C(=O)O)NC(=O)[C@H](CO)NC(=O)[C@H](C(C)C)NC(=O)[C@H](CC(C)C)NC(=O)[C@H](CCN)NC(=O)[C@@H](CC(C)C)NC(=O)[C@H](C)N(C)C(=O)[C@H](C(C)CC)NC(=O)[C@H](Cc2ccc(-c3ccccc3)cc2)NC1=O (stereo partly drawn) [Compound 2221] ({CH2CO}-[Thr(3ξ)]Y(Carboxymethyl)DW[Nle][Bip][Ile(3ξ)][NMeA][dL][Dab]LVSCN-OH; thioether N-14)
14 | 0.29 | CCC(C)[C@@H]1NC(=O)[C@H](Cc2ccc(-c3ccccc3)cc2)NC(=O)[C@H](Cc2cccc(C)c2)NC(=O)[C@H](Cc2c[nH]c3ccccc23)NC(=O)[C@H](CC(=O)O)NC(=O)[C@H](Cc2ccc(OCC(=O)O)cc2)NC(=O)[C@H](C(C)O)NC(=O)CSC[C@@H](C(=O)N[C@@H](CC(N)=O)C(=O)O)NC(=O)[C@H](CO)NC(=O)[C@H](C(C)C)NC(=O)[C@H](CC(C)C)NC(=O)[C@H](CCN)NC(=O)[C@@H](CC(C)C)NC(=O)[C@H](C)N(C)C1=O (stereo partly drawn) [Compound 2222] ({CH2CO}-[Thr(3ξ)]Y(Carboxymethyl)DW[Phe(3-Me)][Bip][Ile(3ξ)][NMeA][dL][Dab]LVSCN-OH; thioether N-14)
